Key:
Phytophthora sojae = details: oomycete carrying encoding gene of mutated protein; cited from earlier work
[1] = tested on: Avh109 gene complemented transformants of Phytophthora sojae (Nat1 gene as selection marker); experiment: Growth on nourseothricin-containing V8 culture medium, candidate transformants carrying the Nat1 gene; format: cell-based; details: 50 μg/mL nourseothricin; 15 candidate transformants with Nat1 gene
Description: (S2) After the centrifugation, the supernatant was discarded. Then 5 mL of PM culture medium were added into the centrifuge tube to resuspend the regenerated hypha. After that, 5 mL of 30 μg/mL nourseothricin-containing PM culture medium were added into the centrifuge tube, and mixed to be poured into a petri dish. Then the petri dish was subjected to drying, and culturing at 25° C. in dark for 3-4 days to perform primary screening.
(S3) The growth condition of hyphae on the surface of the petri dish was observed. 10 mL of 50 μg/mL nourseothricin-containing V8 culture medium were added into the petri dish, and cultured at 25° C. in the dark for 3-4 days to perform secondary screening.
(S4) The growth condition of hyphae on the surface of the petri dish was observed. The regenerated strain was transferred to the 50 μg/mL nourseothricin-containing V8 culture medium to perform tertiary screening. After three screenings in the presence of nourseothricin, 15 transformants were obtained, which were preliminarily considered to be complemented transformants (candidate transformants) for subsequent identification.
(§1) The 15 candidate transformants screened in Example 1 were transformed to the 50 μg/mL nourseothricin-containing V8 culture medium to observe the growth condition of the 15 candidate transformants, and the wide-type Phytophthora sojae is used as a control strain.

[2] = tested on: wide-type Phytophthora sojae; experiment: Growth on nourseothricin-containing V8 culture medium, control strain; format: cell-based; details: 50 μg/mL nourseothricin, grows on V8 medium without nourseothricin
Description: as §1

Compound	resistance to oxathiapiprolin induced in the oomycete by the mutated protein (Phytophthora sojae)	growth condition on nourseothricin-containing V8 medium [1]	growth condition on nourseothricin-containing V8 medium [2]
Cc1cc(C(F)(F)F)nn1CC(=O)N1CCC(c2nc(C3=NOC(c4c(F)cccc4F)C3)cs2)CC1 (stereo not drawn) [oxathiapiprolin]	more than 500 times		
nourseothricin		able to grow normally	not able to grow

From patent publication US20220170029A1, “APPLICATION OF NAT1 GENE AS SCREENING MARKER IN GENETIC TRANSFORMATION OF OOMYCETE” (priority 2021, published 2022)
